In patent US8440794B2, “Peptide sequences, their branched form and use thereof for antimicrobial applications” (Universita' Degli Studi di Siena, priority 2008, dated 2013):
Converted amounts (≈) assume the structure as drawn. Where a SMILES comes first, the peptide text is derived from it. Bridges are numbered along the chain shown (N, C = ends). Roman numbers before positions name the chains, in order. [ ]: non-standard residue; d: D form. βAla = NCCC(=O)O

Experiments:
P. aeruginosa ATCC 27853 [1] = experiment: Bacterial load of P. aeruginosa in a mouse sepsis model; assay type: in vivo; details: P. aeruginosa 1 × 10^7 CFU/mouse ip, M33 25 mg/Kg
Description: After 40 hours, all sampled body sites were apparently clear of bacteria (Table 2).

[2] = tested on: LPS from K. pneumoniae ATCC15380; TNF-α secretion by Raw 264.7 macrophages; experiment: Inhibition of LPS-induced TNF-α secretion by Raw 264.7 macrophages, LPS from K. pneumoniae; assay type: cell-based
Description: (§1) FIG. 3. Inhibition of TNF-α release by neutralization of LPS. A, Raw 264.7 cells were incubated with LPS from P. aeruginosa 20 ng/ml and M33. Triangles indicate incubation with LPS and different concentrations of M33. Squares indicate incubation with M33 only. B, Raw 264.7 cells were incubated with LPS from K. pneumoniae 5 ng/ml and M33. Triangles indicate incubation of macrophages with LPS and different concentrations of M33. Squares indicate incubation of macrophages with M33 only. SD derived by means of three different experiments. 100% indicates the maximum amount of TNF-α produced by macrophages when incubated with LPS without M33. The other percentages indicate the amount of TNF-α produced by macrophages when incubated with LPS and M33, with respect to 100%. Basal levels of TNF-α were negligible. MIC of M33 is indicated by the arrow.
(§2) Then it was examined for inhibiting LPS-induced TNF-α, secretion by Raw 264.7 macrophages.

[3] = tested on: P. aeruginosa SC-GMm03-05; assay type: cell-based, Pseudomonas aeruginosa; details: SC-GMm03-05, 24 h
[4] = tested on: P. aeruginosa SC-MDr03-06; assay type: cell-based, Pseudomonas aeruginosa; details: SC-MDr03-06, 24 h
[5] = tested on: P. aeruginosa SC-DMr05-04; assay type: cell-based, Pseudomonas aeruginosa; details: SC-DMr05-04, 24 h
[6] = tested on: P. aeruginosa SC-VMr04-05; assay type: cell-based, Pseudomonas aeruginosa; details: SC-VMr04-05, 24 h
[7] = tested on: P. aeruginosa SC-CNm03-07; assay type: cell-based, Pseudomonas aeruginosa; details: SC-CNm03-07, 24 h
P. aeruginosa VR-143/97 = assay type: cell-based, Pseudomonas aeruginosa; details: VR-143/97, 24 h
P. aeruginosa EF-OBG6-1 = assay type: cell-based, Pseudomonas aeruginosa; details: EF-OBG6-1, 24 h
P. aeruginosa PAO-1 = assay type: cell-based, Pseudomonas aeruginosa; details: PAO-1, 24 h
[8] = tested on: P. aeruginosa SC-BGr12-02; assay type: cell-based, Pseudomonas aeruginosa; details: SC-BGr12-02, 24 h
S. aureus 3851 = assay type: cell-based, Staphylococcus aureus; details: 3851, 24 h
Description: (§3) M33, […], M35 and M36 MICs were determined against strains of several bacterial species, including Gram-negative pathogens and also Staphylococcus aureus (Table 1). MICs in the micromolar range were observed against several Gram-negatives including Pseudomonas aeruginosa, Acinetobacter baumannii and most Enterobacteriaceae, with the exception of Proteus mirabilis, Serratia marcescens and Burkholderia cepacia. Activity of peptides was retained against MDR strains with various resistance mechanisms (such as extended-spectrum beta-lactamases and carbapenemases), including MDR P. aeruginosa strains from CF patients. Antimicrobial profile of M33, […] and potency were overall similar to those of polymyxin B, although M33, M34, M35 and M36 also appeared to have some activity against S. aureus (Table 1).

P. aeruginosa ATCC 27853 [9] = experiment: In vivo antibacterial activity, mice infected ip with lethal amount of P. aeruginosa ATCC 27853; set-up: species or system Balb-c mice; details: for Animals protected from death: P. aeruginosa ATCC 27853 1×10^7 CFU ip
Description: FIG. 4. In vivo antibacterial activity of tetra-branched M33 peptide. A, Balb-c mice (20 g) were intra-peritoneally injected with a lethal amount of E. coli TG1 cells (1.5×10^9 CFU). Continuous line (Ctr) indicates mice only injected ip with bacteria and no M33. Broken line indicates mice injected ip with bacteria and a single injection of M33 peptide 10 mg/Kg 30 minutes later. B, Balb-c mice (20 g) were intra-peritoneally injected with a lethal amount of P. aeruginosa cells (ATCC 27853 1×10^7 CFU). Continuous line (Ctr) indicates mice which only received bacteria; other groups received bacteria and a single dose of M33 30 minutes later (see figure for doses of M33). C, Balb-c mice (20 g) were intra-peritoneally injected with a lethal amount of P. aeruginosa cells (multi drug resistant VR 147 clinical isolate, 1.5×10^7 CFU). Continuous line (Ctr) indicates mice which only received bacteria; broken line indicates mice which received bacteria and a single dose of M33 25 mg/Kg. D, Balb-c mice (20 g) were intra-peritoneally injected with a lethal amount of P. aeruginosa cells (ATCC 27853 1×10^7 CFU). Continuous line (Ctr) indicates mice which only received bacteria; long broken line, mice receiving bacteria and two injections of M33 (5 mg/Kg×2), 30 minutes and 12 hours after bacteria; short broken line, mice receiving bacteria and three injections of M33 (5 mg/Kg×3), 30 minutes, 12 and 24 hours after bacteria. P<0.05.
Tetra-branched M33 peptide was analysed for its antibacterial activity in mice infected with lethal amounts of bacteria. Two different bacterial species were used, Escherichia coli and Pseudomonas aeruginosa. […] Balb-c mice were infected with the LD100 of bacteria and treated 30 minutes later with the peptide by ip administration.

[10] = tested on: LPS from P. aeruginosa serotype 10 ATCC27316; TNF-α secretion by Raw 264.7 macrophages; experiment: Inhibition of LPS-induced TNF-α secretion by Raw 264.7 macrophages, LPS from P. aeruginosa; assay type: cell-based
Description: as §1, §2

[11] = tested on: P. aeruginosa and K. pneumoniae; assay type: cell-based; details: 24 h
Description: as §3, §2

[12] = sacrificed 18 h after infection
[13] = sacrificed 40 h after infection

## CC[C@H](C)[C@H](NC(=O)[C@H](CCCCN)NC(=O)[C@@H](N)CCCCN)C(=O)N[C@@H](CCCNC(=N)N)C(=O)N[C@H](C(=O)N[C@@H](CCCNC(=N)N)C(=O)N[C@@H](CC(C)C)C(=O)N[C@@H](CO)C(=O)N[C@@H](C)C(=O)NCCCC[C@H](NC(=O)[C@H](C)NC(=O)[C@H](CO)NC(=O)[C@H](CC(C)C)NC(=O)[C@H](CCCNC(=N)N)NC(=O)[C@@H](NC(=O)[C@H](CCCNC(=N)N)NC(=O)[C@@H](NC(=O)[C@H](CCCCN)NC(=O)[C@@H](N)CCCCN)[C@@H](C)CC)C(C)C)C(=O)NCCCC[C@H](NC(=O)[C@H](CCCCNC(=O)[C@H](C)NC(=O)[C@H](CO)NC(=O)[C@H](CC(C)C)NC(=O)[C@H](CCCNC(=N)N)NC(=O)[C@@H](NC(=O)[C@H](CCCNC(=N)N)NC(=O)[C@@H](NC(=O)[C@H](CCCCN)NC(=O)[C@@H](N)CCCCN)[C@@H](C)CC)C(C)C)NC(=O)[C@H](C)NC(=O)[C@H](CO)NC(=O)[C@H](CC(C)C)NC(=O)[C@H](CCCNC(=N)N)NC(=O)[C@@H](NC(=O)[C@H](CCCNC(=N)N)NC(=O)[C@@H](NC(=O)[C@H](CCCCN)NC(=O)[C@@H](N)CCCCN)[C@@H](C)CC)C(C)C)C(=O)NCCC(=O)O)C(C)C [M33, KKIRVRLSA] (I: H-KKIRVRLSAKK[βAla]-OH / II: H-KKIRVRLSAK / III: H-KKIRVRLSA / IV: H-KKIRVRLSA; amide I:10-IV:C, I:11-II:C, II:10-III:C; N-terminus assumed)
P. aeruginosa ATCC 27853 [1]; [12]
  Bacterial count (mean ± SD) in Blood: <1 × 10^2 CFU/ml
  Bacterial count (mean ± SD) in Liver: 3 × 10^5 ± 6.7 × 10^5 CFU/organ
  Bacterial count (mean ± SD) in Spleen: 2.4 × 10^4 ± 5.3 × 10^4 CFU/organ
P. aeruginosa ATCC 27853 [1]; [13]
  Bacterial count (mean ± SD) in Blood: <1 × 10^2 CFU/ml
  Bacterial count (mean ± SD) in Liver: <1 × 10^2 CFU/organ
  Bacterial count (mean ± SD) in Peritoneum: <1 × 10^2 CFU/ml
  Bacterial count (mean ± SD) in Spleen: <1 × 10^2 CFU/organ
[2]; Raw 264.7 macrophages, LPS from K. pneumoniae ATCC15380, 5 ng/ml, read-out: EC50, block of TNF-α secretion
  EC50: 260 nM
[2]; at a concentration corresponding to MIC (1.5-3 μM), LPS from K. pneumoniae
  Decrease of TNF-α production: more than 80%
[3]
  MIC: 1.5 µM (≈ 7.02 µg/mL)
[4]
  MIC: 3 µM (≈ 14 µg/mL)
[5]
  MIC: 1.5 µM (≈ 7.02 µg/mL)
[6]
  MIC: 3 µM (≈ 14 µg/mL)
[7]
  MIC: 0.3 µM (≈ 1.4 µg/mL)
P. aeruginosa VR-143/97
  MIC: 1.5 µM (≈ 7.02 µg/mL)
P. aeruginosa EF-OBG6-1
  MIC: 0.7 µM (≈ 3.28 µg/mL)
P. aeruginosa PAO-1
  MIC: 1.5 µM (≈ 7.02 µg/mL)
[8]
  MIC: 1.5 µM (≈ 7.02 µg/mL)
S. aureus 3851
  MIC: 6 µM (≈ 28.1 µg/mL)
P. aeruginosa ATCC 27853 [9]; single dose 6.5 mg/Kg ip 30 minutes later
  Animals protected from death: did not protect them from death
P. aeruginosa ATCC 27853 [9]; single dose 12.5 mg/Kg ip 30 minutes later
  Animals protected from death: 25%
P. aeruginosa ATCC 27853 [9]; single dose 25 mg/Kg ip 30 minutes later
  Animals protected from death: 75%
P. aeruginosa ATCC 27853 [9]; P. aeruginosa ATCC 27853, three doses of 5 mg/Kg (30 min, 12 h and 24 h after infection)
  Survival beyond seven days after infection: 100%
P. aeruginosa ATCC 27853 [9]; P. aeruginosa ATCC 27853, two doses of 5 mg/Kg (30 min and 12 h after infection)
  Survival after multiple doses: death was delayed
[10]; Raw 264.7 macrophages, LPS from P. aeruginosa serotype 10 ATCC27316, 20 ng/ml, read-out: EC50, block of TNF-α secretion
  EC50: 40 nM
[10]; at a concentration corresponding to MIC (1.5-3 μM), LPS from P. aeruginosa
  Decrease of TNF-α production: more than 90%
[11]
  MIC: 1.5 to 3 µM
